Values quoted from earlier work, collected in patent US8198020B2, “Compositions and methods for enhancing phagocytosis or phagocyte activity” (Potentia Pharmaceuticals, Inc., priority 2003, dated 2012).

System: metastatic colorectal cancer
Conditions: patients with metastatic colorectal cancer; prolonged from 15.6

In the case of “Avastin: recombinant monoclonal antibody that binds to VEGF”, the median survival is listed as 18.3 months.
